The NIST ThermoML archive (doi:10.1016/j.jct.2008.10.010)
Numbers after ± are expanded uncertainties.

Assay: molar heat capacity at constant pressure; xn = mol fraction of the nth substance listed
Details: 101.3 kPa, Liquid, Small sample (50 mg) DSC

CCC(C)(C)O [2-methylbutan-2-ol] + CCCCCCC
Details | molar heat capacity at constant pressure [J/K/mol]
292.14 K, x1 = 0.9609 | 240.86 ± 3.7
292.16 K, x1 = 0.0249 | 228.51 ± 3.5
293.14 K, x1 = 0.0061 | 223.05 ± 3.5
293.14 K, x1 = 0.0249 | 228.85 ± 3.5
293.14 K, x1 = 0.0494 | 233.49 ± 3.6
293.14 K, x1 = 0.1 | 238.13 ± 3.7
293.14 K, x1 = 0.1547 | 240.82 ± 3.7
293.14 K, x1 = 0.1999 | 242.32 ± 3.8
293.14 K, x1 = 0.2993 | 244.48 ± 3.8
293.14 K, x1 = 0.4051 | 245.2 ± 3.8
293.14 K, x1 = 0.4986 | 245.35 ± 3.8
293.14 K, x1 = 0.5981 | 245.12 ± 3.8
293.14 K, x1 = 0.7015 | 244.38 ± 3.8
293.14 K, x1 = 0.8023 | 243.13 ± 3.8
293.14 K, x1 = 0.9139 | 242.22 ± 3.8
293.14 K, x1 = 0.9609 | 241.95 ± 3.8
294.15 K, x1 = 0.0061 | 223.39 ± 3.5
294.15 K, x1 = 0.0249 | 229.18 ± 3.5
294.15 K, x1 = 0.0494 | 233.86 ± 3.6
294.15 K, x1 = 0.1 | 238.71 ± 3.7
294.15 K, x1 = 0.1547 | 241.58 ± 3.7
294.15 K, x1 = 0.1999 | 243.15 ± 3.8
294.15 K, x1 = 0.2993 | 245.43 ± 3.8
294.15 K, x1 = 0.4051 | 246.27 ± 3.8
294.15 K, x1 = 0.4986 | 246.46 ± 3.8
294.15 K, x1 = 0.5981 | 246.23 ± 3.8
294.15 K, x1 = 0.7015 | 245.52 ± 3.8
294.15 K, x1 = 0.8023 | 244.34 ± 3.8
294.15 K, x1 = 0.9139 | 243.38 ± 3.8
294.15 K, x1 = 0.9609 | 243.11 ± 3.8
295.14 K, x1 = 0.0061 | 223.7 ± 3.5
295.14 K, x1 = 0.0249 | 229.37 ± 3.5
295.14 K, x1 = 0.0494 | 234.25 ± 3.6
295.14 K, x1 = 0.1 | 239.22 ± 3.7
295.14 K, x1 = 0.1547 | 242.31 ± 3.8
295.14 K, x1 = 0.1999 | 243.96 ± 3.8
295.14 K, x1 = 0.2993 | 246.32 ± 3.8
295.14 K, x1 = 0.4051 | 247.28 ± 3.8
295.14 K, x1 = 0.4986 | 247.54 ± 3.8
295.14 K, x1 = 0.5981 | 247.38 ± 3.8
295.14 K, x1 = 0.7015 | 246.7 ± 3.8
295.14 K, x1 = 0.8023 | 245.54 ± 3.8
295.14 K, x1 = 0.9139 | 244.5 ± 3.8
295.14 K, x1 = 0.9609 | 244.22 ± 3.8
296.14 K, x1 = 0.0061 | 223.96 ± 3.5
296.14 K, x1 = 0.0249 | 229.63 ± 3.6
296.14 K, x1 = 0.0494 | 234.59 ± 3.6
296.14 K, x1 = 0.1 | 239.76 ± 3.7
296.14 K, x1 = 0.1547 | 242.94 ± 3.8
296.14 K, x1 = 0.1999 | 244.6 ± 3.8
296.14 K, x1 = 0.2993 | 247.2 ± 3.8
296.14 K, x1 = 0.4051 | 248.27 ± 3.9
296.14 K, x1 = 0.4986 | 248.61 ± 3.9
296.14 K, x1 = 0.5981 | 248.5 ± 3.9
296.14 K, x1 = 0.7015 | 247.88 ± 3.8
296.14 K, x1 = 0.8023 | 246.68 ± 3.8
296.14 K, x1 = 0.9139 | 245.64 ± 3.8
296.14 K, x1 = 0.9609 | 245.31 ± 3.8
297.15 K, x1 = 0.0061 | 224.33 ± 3.5
297.15 K, x1 = 0.0249 | 229.81 ± 3.6
297.15 K, x1 = 0.0494 | 235.01 ± 3.6
297.15 K, x1 = 0.1 | 240.36 ± 3.7
297.15 K, x1 = 0.1547 | 243.63 ± 3.8
297.15 K, x1 = 0.1999 | 245.46 ± 3.8
297.15 K, x1 = 0.2993 | 248.18 ± 3.8
297.15 K, x1 = 0.4051 | 249.33 ± 3.9
297.15 K, x1 = 0.4986 | 249.76 ± 3.9
297.15 K, x1 = 0.5981 | 249.72 ± 3.9
297.15 K, x1 = 0.7015 | 249.04 ± 3.9
297.15 K, x1 = 0.8023 | 247.89 ± 3.8
297.15 K, x1 = 0.9139 | 246.86 ± 3.8
297.15 K, x1 = 0.9609 | 246.4 ± 3.8
298.14 K, x1 = 0.0061 | 224.65 ± 3.5
298.14 K, x1 = 0.0249 | 230.08 ± 3.6
298.14 K, x1 = 0.0494 | 235.35 ± 3.6
298.14 K, x1 = 0.1 | 240.89 ± 3.7
298.14 K, x1 = 0.1547 | 244.27 ± 3.8
298.14 K, x1 = 0.1999 | 246.18 ± 3.8
298.14 K, x1 = 0.2993 | 249.05 ± 3.9
298.14 K, x1 = 0.4051 | 250.35 ± 3.9
298.14 K, x1 = 0.4986 | 250.83 ± 3.9
298.14 K, x1 = 0.5981 | 250.81 ± 3.9
298.14 K, x1 = 0.7015 | 250.24 ± 3.9
298.14 K, x1 = 0.8023 | 249.08 ± 3.9
298.14 K, x1 = 0.9139 | 247.97 ± 3.8
298.14 K, x1 = 0.9609 | 247.48 ± 3.8
298.16 K, x1 = 0.0061 | 224.66 ± 3.5
298.16 K, x1 = 0.0249 | 230.09 ± 3.6
298.16 K, x1 = 0.0494 | 235.36 ± 3.6
298.16 K, x1 = 0.1 | 240.91 ± 3.7
298.16 K, x1 = 0.1547 | 244.3 ± 3.8
298.16 K, x1 = 0.1999 | 246.2 ± 3.8
298.16 K, x1 = 0.2993 | 249.07 ± 3.9
298.16 K, x1 = 0.4051 | 250.39 ± 3.9
298.16 K, x1 = 0.4986 | 250.87 ± 3.9
298.16 K, x1 = 0.5981 | 250.84 ± 3.9
298.16 K, x1 = 0.7015 | 250.29 ± 3.9
298.16 K, x1 = 0.8023 | 249.11 ± 3.9
298.16 K, x1 = 0.9139 | 248 ± 3.8
298.16 K, x1 = 0.9609 | 247.52 ± 3.8
299.14 K, x1 = 0.0061 | 224.99 ± 3.5
299.14 K, x1 = 0.0249 | 230.35 ± 3.6
299.14 K, x1 = 0.0494 | 235.67 ± 3.6
299.14 K, x1 = 0.1 | 241.48 ± 3.7
299.14 K, x1 = 0.1547 | 244.98 ± 3.8
299.14 K, x1 = 0.1999 | 246.99 ± 3.8
299.14 K, x1 = 0.2993 | 249.97 ± 3.9
299.14 K, x1 = 0.4051 | 251.31 ± 3.9
299.14 K, x1 = 0.4986 | 251.91 ± 3.9
299.14 K, x1 = 0.5981 | 251.9 ± 3.9
299.14 K, x1 = 0.7015 | 251.35 ± 3.9
299.14 K, x1 = 0.8023 | 250.25 ± 3.9
299.14 K, x1 = 0.9139 | 249.1 ± 3.9
299.14 K, x1 = 0.9609 | 248.6 ± 3.9
300.15 K, x1 = 0.0061 | 225.26 ± 3.5
300.15 K, x1 = 0.0249 | 230.51 ± 3.6
300.15 K, x1 = 0.0494 | 236 ± 3.7
300.15 K, x1 = 0.1 | 241.9 ± 3.8
300.15 K, x1 = 0.1547 | 245.57 ± 3.8
300.15 K, x1 = 0.1999 | 247.7 ± 3.8
300.15 K, x1 = 0.2993 | 250.81 ± 3.9
300.15 K, x1 = 0.4051 | 252.27 ± 3.9
300.15 K, x1 = 0.4986 | 252.92 ± 3.9
300.15 K, x1 = 0.5981 | 253 ± 3.9
